# Experimental data: article PMC7913927, “Leishmanicidal Activity of Betulin Derivatives in Leishmania amazonensis; Effect on Plasma and Mitochondrial Membrane Potential, and Macrophage Nitric Oxide and Superoxide Production” (Microorganisms, 2021)
# Where two headings read alike, the source gives them in different places.
# What was measured:
# [1] = system: VE2000MM intracellular amastigotes in J774.1 macrophages; assay: Macrophage-amastigote model, patient isolate VE2000MM; format: cell-based, Leishmania amazonensis; conditions: for Regresion (GraphPad 6) of %Control vs dose (50% inhibitory concentration) / Growth (%) Exp1 %Control / Growth (%) Exp1 A/100MØ / Growth (%) Exp1 A/MØ / Growth (%) Exp1 Infección / Growth (%) Exp2 %Control / Growth (%) Exp2 A/100MØ / Growth (%) Exp2 A/MØ / Growth (%) Exp2 Infección / Growth (%) Exp3 %Control / Growth (%) Exp3 A/100MØ / Growth (%) Exp3 A/MØ / Growth (%) Exp3 Infección / Average A/100MØ: VE2000MM; for Regresion (GraphPad 6) of %Control vs dose (50% inhibitory concentration): unit from Dose head; for Average A/100MØ: average of Exp1-3
# Description: We used a previously described methodology, with some modifications. Macrophage monolayers, grown in RMPIc medium, for 3 days, were detached from the bottom of the culture chamber, by physical treatment (low temperature and light strokes). Obtained macrophages were seeded in flat-bottom 96-well culture plates, at a density of 2 × 10^5 cells mL^−1 (40,000 macrophages/well), in a final volume of 200 µL. Plates were incubated for 2 h, and the supernatant was discarded to remove non-adhered macrophages. Medium was replaced with stationary-phase promastigotes suspended in 200 µL of RPMIc (2 × 10^6 parasites mL^−1, 400,000 parasites/well), at a macrophage: parasite ratio 1:10 [40]. The plates were incubated for 4 h. Afterwards the medium was replaced with fresh RPMIc and increasing concentrations of compounds or drugs tested were applied, in volumes of 2 µL, according to the different treatment groups. Plates were kept for 72 h, at 37 °C and 5% CO2. The medium was discarded and the wells were washed twice with PBS. Next, a Giemsa staining was performed in situ. It consisted of adding 200 µL of methanol/well, incubating for 5 min, discarding the fixative, and letting it dry at room temperature. Later, the Giemsa solution (10% in PBS w/v, 200 µL/well) was added, incubated for 10 min, and washed with PBS, allowing it to dry. Finally, the bottom of the plates was detached by percussion and the circular bottoms (wells) were fixed to slides with Permount synthetic resin, for later evaluation (Alcazar W., manuscript in preparation). Cell counting was performed with a 100× immersion objective. A minimum of 200 random macrophages were examined. The percentage of infected macrophages (% infection) and the average number of amastigotes present in infected macrophages (amastigotes) were determined. […] The infection rate represents the number of intracellular amastigotes per 100 macrophages evaluated. Additionally, the GI50 for the decrease in the infection rate was calculated. At least three independent experiments were performed. The effect of amphotericin-B (AmB) [Sigma-Aldrich, (St. Louis, MO, USA)] was included as positive control of the assay.
# [2] = system: L. (L.) donovani axenic amastigotes; conditions: cited from earlier work
# [3] = system: L. (L.) amazonensis LTB0016 promastigotes; assay: Promastigote in vitro susceptibility (Alamar Blue/resazurin), reference strain; format: cell-based, Leishmania amazonensis; conditions: LTB0016, 50 µM
# Description: The fluorometric method of Alamar Blue® (resazurin) was used. Promastigotes grown in biphasic agar-blood medium, at the exponential phase of growth, were seeded in flat-bottom 96-well culture plates, at a cell density of 1 × 10^6 parasites mL^−1 (200,000 parasites/well), in 180 µL of RPMIc without phenol red. Subsequently, either a sole concentration (50 µM), or increasing concentrations of compounds or drugs were applied, according to each treatment group, in volumes of 2 µL. Plates were kept at 26 °C, in a humid chamber, for 72 h. […] Live parasites are metabolically active and capable of reducing non-fluorescent resazurin (blue) to fluorescent resorufin (red). Fluorescence intensity is directly proportional to the number of viable cells. […] At least two independent experiments were performed in duplicate. The effect of trivalent antimonial [SbIII, potassium antimonyl tartrate trihydrate, Sigma-Aldrich, (St. Louis, MO, USA)] was included as positive control of the assay.
# [4] = system: J774.1 macrophages; assay: Cytotoxicity (Alamar Blue) in macrophages; format: cell-based, murine; conditions: 72 h
# Description: In flat-bottom 96-well culture plates, J774.1 macrophages were seeded at a cell density of 5 × 10^4 mL^−1 (10,000 macrophages/well) in 200 µL of RPMIc. After 24 h at 37 °C, 5% CO2, medium was replaced by 180 µL of RPMIc, without phenol red, and increasing concentrations of test compounds in 2-µL volumes. […] At least two independent experiments were performed in duplicate. Based on the inhibition of cell growth caused by the tested compounds, the percentage of growth inhibition compared to untreated cells was calculated. […] Selectivity indices (SI) were calculated, dividing the macrophage CC50 by the parasites GI50 (SI = CC50/GI50).
structure (smiles),measurement,setting,value
C=C(C)C1CCC2(C=NO)CCC3(C)C(CCC4C5(C)CCC(=NO)C(C)(C)C5CCC43C)C12 (stereo not shown) [Compound 18],SI (CC50/GI50) VE2000MM,"[1]; J774.1 CC50 / intracellular amastigote GI50, Table 2",66.79
same,GI50,"[1]; VE2000MM intracellular amastigotes, read-out: GI50 (µM) Experiment 1 Regresion",0.87 µM
same,GI50,"[1]; VE2000MM intracellular amastigotes, read-out: GI50 (µM) Experiment 2 Regresion",0.43 µM
same,GI50,"[1]; VE2000MM intracellular amastigotes, read-out: GI50 (µM) Experiment 3 Regresion",0.62 µM
same,Regresion (GraphPad 6) of %Control vs dose (50% inhibitory concentration),[1]; Exp1,0.87 µM
same,Regresion (GraphPad 6) of %Control vs dose (50% inhibitory concentration),[1]; Exp2,0.43 µM
same,Regresion (GraphPad 6) of %Control vs dose (50% inhibitory concentration),[1]; Exp3,0.62 µM
same,Growth (%) Exp1 %Control,"[1]; dose 0.10 µM, Exp1",85.88%
same,Growth (%) Exp1 A/100MØ,"[1]; dose 0.10 µM, Exp1",212.29
same,Growth (%) Exp1 A/MØ,"[1]; dose 0.10 µM, Exp1",3.35
same,Growth (%) Exp1 Infección,"[1]; dose 0.10 µM, Exp1",63.37%
same,Growth (%) Exp2 %Control,"[1]; dose 0.10 µM, Exp2",78.62%
same,Growth (%) Exp2 A/100MØ,"[1]; dose 0.10 µM, Exp2",190.11
same,Growth (%) Exp2 A/MØ,"[1]; dose 0.10 µM, Exp2",3.20
same,Growth (%) Exp2 Infección,"[1]; dose 0.10 µM, Exp2",59.41%
same,Growth (%) Exp3 %Control,"[1]; dose 0.10 µM, Exp3",72.17%
same,Growth (%) Exp3 A/100MØ,"[1]; dose 0.10 µM, Exp3",163.09
same,Growth (%) Exp3 A/MØ,"[1]; dose 0.10 µM, Exp3",3.10
same,Growth (%) Exp3 Infección,"[1]; dose 0.10 µM, Exp3",52.61%
same,Average A/100MØ,[1]; dose 0.10 µM,188.50
same,Growth (%) Exp1 %Control,"[1]; dose 0.50 µM, Exp1",66.72%
same,Growth (%) Exp1 A/100MØ,"[1]; dose 0.50 µM, Exp1",164.92
same,Growth (%) Exp1 A/MØ,"[1]; dose 0.50 µM, Exp1",2.90
same,Growth (%) Exp1 Infección,"[1]; dose 0.50 µM, Exp1",56.87%
same,Growth (%) Exp2 %Control,"[1]; dose 0.50 µM, Exp2",51.58%
same,Growth (%) Exp2 A/100MØ,"[1]; dose 0.50 µM, Exp2",124.74
same,Growth (%) Exp2 A/MØ,"[1]; dose 0.50 µM, Exp2",2.98
same,Growth (%) Exp2 Infección,"[1]; dose 0.50 µM, Exp2",41.86%
same,Growth (%) Exp3 %Control,"[1]; dose 0.50 µM, Exp3",54.73%
same,Growth (%) Exp3 A/100MØ,"[1]; dose 0.50 µM, Exp3",123.67
same,Growth (%) Exp3 A/MØ,"[1]; dose 0.50 µM, Exp3",3.24
same,Growth (%) Exp3 Infección,"[1]; dose 0.50 µM, Exp3",38.17%
same,Average A/100MØ,[1]; dose 0.50 µM,137.78
same,Growth (%) Exp1 %Control,"[1]; dose 1.00 µM, Exp1",45.38%
same,Growth (%) Exp1 A/100MØ,"[1]; dose 1.00 µM, Exp1",112.17
same,Growth (%) Exp1 A/MØ,"[1]; dose 1.00 µM, Exp1",2.76
same,Growth (%) Exp1 Infección,"[1]; dose 1.00 µM, Exp1",40.64%
same,Growth (%) Exp2 %Control,"[1]; dose 1.00 µM, Exp2",23.47%
same,Growth (%) Exp2 A/100MØ,"[1]; dose 1.00 µM, Exp2",56.76
same,Growth (%) Exp2 A/MØ,"[1]; dose 1.00 µM, Exp2",1.93
same,Growth (%) Exp2 Infección,"[1]; dose 1.00 µM, Exp2",29.41%
same,Growth (%) Exp3 %Control,"[1]; dose 1.00 µM, Exp3",44.34%
same,Growth (%) Exp3 A/100MØ,"[1]; dose 1.00 µM, Exp3",100.21
same,Growth (%) Exp3 A/MØ,"[1]; dose 1.00 µM, Exp3",2.85
same,Growth (%) Exp3 Infección,"[1]; dose 1.00 µM, Exp3",35.16%
same,Average A/100MØ,[1]; dose 1.00 µM,89.71
same,Growth (%) Exp1 %Control,"[1]; dose 5.00 µM, Exp1",12.40%
same,Growth (%) Exp1 A/100MØ,"[1]; dose 5.00 µM, Exp1",30.64
same,Growth (%) Exp1 A/MØ,"[1]; dose 5.00 µM, Exp1",1.33
same,Growth (%) Exp1 Infección,"[1]; dose 5.00 µM, Exp1",23.04%
same,Growth (%) Exp2 %Control,"[1]; dose 5.00 µM, Exp2",17.91%
same,Growth (%) Exp2 A/100MØ,"[1]; dose 5.00 µM, Exp2",43.32
same,Growth (%) Exp2 A/MØ,"[1]; dose 5.00 µM, Exp2",2.00
same,Growth (%) Exp2 Infección,"[1]; dose 5.00 µM, Exp2",21.66%
same,Growth (%) Exp3 %Control,"[1]; dose 5.00 µM, Exp3",26.77%
same,Growth (%) Exp3 A/100MØ,"[1]; dose 5.00 µM, Exp3",60.50
same,Growth (%) Exp3 A/MØ,"[1]; dose 5.00 µM, Exp3",2.96
same,Growth (%) Exp3 Infección,"[1]; dose 5.00 µM, Exp3",20.44%
same,Average A/100MØ,[1]; dose 5.00 µM,44.82
same,Growth (%) Exp1 %Control,"[1]; dose 10.00 µM, Exp1",11.00%
same,Growth (%) Exp1 A/100MØ,"[1]; dose 10.00 µM, Exp1",27.18
same,Growth (%) Exp1 A/MØ,"[1]; dose 10.00 µM, Exp1",1.50
same,Growth (%) Exp1 Infección,"[1]; dose 10.00 µM, Exp1",18.12%
same,Growth (%) Exp2 %Control,"[1]; dose 10.00 µM, Exp2",9.36%
same,Growth (%) Exp2 A/100MØ,"[1]; dose 10.00 µM, Exp2",22.64
same,Growth (%) Exp2 A/MØ,"[1]; dose 10.00 µM, Exp2",1.78
same,Growth (%) Exp2 Infección,"[1]; dose 10.00 µM, Exp2",12.72%
same,Growth (%) Exp3 %Control,"[1]; dose 10.00 µM, Exp3",7.87%
same,Growth (%) Exp3 A/100MØ,"[1]; dose 10.00 µM, Exp3",17.78
same,Growth (%) Exp3 A/MØ,"[1]; dose 10.00 µM, Exp3",1.69
same,Growth (%) Exp3 Infección,"[1]; dose 10.00 µM, Exp3",10.52%
same,Average A/100MØ,[1]; dose 10.00 µM,22.53
same,GI50,"[1]; intracellular amastigotes, Supplementary Materials II, read-out: GI50 (µM) VE2000MM, mean of three experiments",0.64 µM
same,GI50,[2],22.8 µM
same,growth inhibition,[3],at least 75%
same,CC50,[4],48.1 µM
